Data taken from patent US9255295B2, “Method for evaluating the sensitizing potential of a test compound” (IMMUNOSEARCH, priority 2010, dated 2016).
Where two headings read alike, the source gives them in different places.

How the values were obtained:
[1] = system: ARE gene family (AKR1B10, AKR1C1, AKR1C2, CYP1B1, FTH1P, FTL, G6PD, GCLM, NQO2, SLC7A11, TXNRD1, UGT1A1, UGT1A9, YWHAZ, CD36, CYP1A1, GCLC, HMOX1, NQO1, PSME2 …); details: for AHR expression / AKR1B10 expression / AKR1C1 expression / AKR1C2 expression / CYP1A1 expression / CYP1B1 expression / FTH1P expression / FTL expression / GCLC expression / GCLM expression / HMOX1 expression / NQO1 expression / NQO2 expression / SLC7A11 expression / TXNRD1 expression / UGT1A1 expression / UGT1A9 expression: compared to the control
EPISKIN model = test: Sensitizing power: sensitizing potential retested at successive dilutions in the EPISKIN model

O=CC=O [Glyoxal]
AKR1C1 NUMBER OF GENES grade ([1]; 10%): 0 (if this expression is lower, the grade is 0) | AKR1C2 NUMBER OF GENES grade ([1]; 10%): 0 (if this expression is lower, the grade is 0) | ARE >1.3 (number of genes) ([1]; 10%): 3 | CD36 expression compared to control ([1]; 10%): 1.3 | CD36 grade (NUMBER OF GENES) ([1]; 10%): 1 (If the expression is greater than 1.3 compared to the control, a grade of 11s given) | CYP1A1 NUMBER OF GENES grade ([1]; 10%): 0 (if this expression is lower, the grade is 0) | CYP1B1 NUMBER OF GENES grade ([1]; 10%): 0 (if this expression is lower, the grade is 0) | FTH1P NUMBER OF GENES grade ([1]; 10%): 0 (if this expression is lower, the grade is 0) | FTL NUMBER OF GENES grade ([1]; 10%): 0 (if this expression is lower, the grade is 0) | GCLC NUMBER OF GENES grade ([1]; 10%): 0 (if this expression is lower, the grade is 0) | GCLM NUMBER OF GENES grade ([1]; 10%): 1 (If the expression is greater than 1.3 compared to the control, a grade of 11s given) | HMOX1 NUMBER OF GENES grade ([1]; 10%): 0 (if this expression is lower, the grade is 0) | NQO1 NUMBER OF GENES grade ([1]; 10%): 0 (if this expression is lower, the grade is 0) | NQO2 NUMBER OF GENES grade ([1]; 10%): 0 (if this expression is lower, the grade is 0) | S100A8 expression compared to control ([1]; 10%): 0.9 | S100A8 grade (NUMBER OF GENES) ([1]; 10%): 0 (if this expression is lower, the grade is 0) | SLC7A11 NUMBER OF GENES grade ([1]; 10%): 1 (If the expression is greater than 1.3 compared to the control, a grade of 11s given) | TOTAL ARE (number of genes) ([1]; 10%): 3 | TXNRD1 NUMBER OF GENES grade ([1]; 10%): 1 (If the expression is greater than 1.3 compared to the control, a grade of 11s given) | UGT1A1 NUMBER OF GENES grade ([1]; 10%): 0 (if this expression is lower, the grade is 0) | UGT1A9 NUMBER OF GENES grade ([1]; 10%): 0 (if this expression is lower, the grade is 0) | AHR expression ([1]; 10%): 1.0 | AKR1B10 expression ([1]; 10%): 0.7 | AKR1C1 expression ([1]; 10%): 1.0 | AKR1C2 expression ([1]; 10%): 1.2 | CYP1A1 expression ([1]; 10%): 0.0 | CYP1B1 expression ([1]; 10%): 0.8 | FTH1P expression ([1]; 10%): 1.1 | FTL expression ([1]; 10%): 1.1 | GCLC expression ([1]; 10%): 1.1 | GCLM expression ([1]; 10%): 1.7 | HMOX1 expression ([1]; 10%): 1.0 | NQO1 expression ([1]; 10%): 1.2 | NQO2 expression ([1]; 10%): 1.0 | SLC7A11 expression ([1]; 10%): 1.9 | TXNRD1 expression ([1]; 10%): 1.3 | UGT1A1 expression ([1]; 10%): 1.0 | UGT1A9 expression ([1]; 10%): 0.2 | AHR NUMBER OF GENES grade ([1]; 50%): 0 (if this expression is lower, the grade is 0) | AKR1B10 NUMBER OF GENES grade ([1]; 50%): 0 (if this expression is lower, the grade is 0) | AKR1C1 NUMBER OF GENES grade ([1]; 50%): 0 (if this expression is lower, the grade is 0) | AKR1C2 NUMBER OF GENES grade ([1]; 50%): 0 (if this expression is lower, the grade is 0) | ARE >1.3 (number of genes) ([1]; 50%): 6 | CD36 expression compared to control ([1]; 50%): 1.1 | CD36 grade (NUMBER OF GENES) ([1]; 50%): 0 (if this expression is lower, the grade is 0) | CYP1A1 NUMBER OF GENES grade ([1]; 50%): 0 (if this expression is lower, the grade is 0) | CYP1B1 NUMBER OF GENES grade ([1]; 50%): 1 (If the expression is greater than 1.3 compared to the control, a grade of 11s given) | FTH1P NUMBER OF GENES grade ([1]; 50%): 0 (if this expression is lower, the grade is 0) | FTL NUMBER OF GENES grade ([1]; 50%): 0 (if this expression is lower, the grade is 0) | GCLC NUMBER OF GENES grade ([1]; 50%): 0 (if this expression is lower, the grade is 0) | GCLM NUMBER OF GENES grade ([1]; 50%): 1 (If the expression is greater than 1.3 compared to the control, a grade of 11s given) | HMOX1 NUMBER OF GENES grade ([1]; 50%): 1 (If the expression is greater than 1.3 compared to the control, a grade of 11s given) | NQO1 NUMBER OF GENES grade ([1]; 50%): 0 (if this expression is lower, the grade is 0) | NQO2 NUMBER OF GENES grade ([1]; 50%): 0 (if this expression is lower, the grade is 0) | S100A8 expression compared to control ([1]; 50%): 0.9 | S100A8 grade (NUMBER OF GENES) ([1]; 50%): 0 (if this expression is lower, the grade is 0) | SLC7A11 NUMBER OF GENES grade ([1]; 50%): 0 (if this expression is lower, the grade is 0) | TOTAL ARE (number of genes) ([1]; 50%): 6 | TXNRD1 NUMBER OF GENES grade ([1]; 50%): 1 (If the expression is greater than 1.3 compared to the control, a grade of 11s given) | UGT1A1 NUMBER OF GENES grade ([1]; 50%): 1 (If the expression is greater than 1.3 compared to the control, a grade of 11s given) | UGT1A9 NUMBER OF GENES grade ([1]; 50%): 1 (If the expression is greater than 1.3 compared to the control, a grade of 11s given) | AHR expression ([1]; 50%): 0.9 | AKR1B10 expression ([1]; 50%): 0.8 | AKR1C1 expression ([1]; 50%): 0.8 | AKR1C2 expression ([1]; 50%): 0.9 | CYP1A1 expression ([1]; 50%): 1.1 | CYP1B1 expression ([1]; 50%): 3.3 | FTH1P expression ([1]; 50%): 0.9 | FTL expression ([1]; 50%): 0.9 | GCLC expression ([1]; 50%): 0.9 | GCLM expression ([1]; 50%): 1.5 | HMOX1 expression ([1]; 50%): 1.4 | NQO1 expression ([1]; 50%): 0.9 | NQO2 expression ([1]; 50%): 0.9 | SLC7A11 expression ([1]; 50%): 1.0 | TXNRD1 expression ([1]; 50%): 1.4 | UGT1A1 expression ([1]; 50%): 1.4 | UGT1A9 expression ([1]; 50%): 1.3 | sensitizing potential (conclusion) (EPISKIN model; 0.1%): Sensitizing | sensitizing potential (conclusion) (EPISKIN model; 1%): Sensitizing | sensitizing potential (conclusion) (EPISKIN model; 10%): Sensitizing | sensitizing potential (conclusion) (EPISKIN model; 50%): Sensitizing | sensitizing power (class) (EPISKIN model; from successive dilutions): MODERATE
